Results: US10100010B1, “4-methoxy pyrrole derivatives or salts thereof and pharmaceutical composition comprising the same” (Daewoong Pharmaceutical Co., Ltd., priority 2015, dated 2018)
Where a name gives a salt, the structure may show the parent alone. Read-outs that look alike come from different tables or passages of the source.

How the values were obtained:
Type in all cases: cell-based
[1] = target: T1, M1 (Homo sapiens, UniProt P11229); test: GPCR Calcium Flux assay (FLIPR tetra, Eurofins), M1; conditions: for IC50: 8 concentrations 10 to 0.0006 uM, read-out: 50% inhibitory concentration (IC50) M1; for inhibition at 10 µM: read-out: inhibition rate (%) M1
T1 sequence (P11229 1-460): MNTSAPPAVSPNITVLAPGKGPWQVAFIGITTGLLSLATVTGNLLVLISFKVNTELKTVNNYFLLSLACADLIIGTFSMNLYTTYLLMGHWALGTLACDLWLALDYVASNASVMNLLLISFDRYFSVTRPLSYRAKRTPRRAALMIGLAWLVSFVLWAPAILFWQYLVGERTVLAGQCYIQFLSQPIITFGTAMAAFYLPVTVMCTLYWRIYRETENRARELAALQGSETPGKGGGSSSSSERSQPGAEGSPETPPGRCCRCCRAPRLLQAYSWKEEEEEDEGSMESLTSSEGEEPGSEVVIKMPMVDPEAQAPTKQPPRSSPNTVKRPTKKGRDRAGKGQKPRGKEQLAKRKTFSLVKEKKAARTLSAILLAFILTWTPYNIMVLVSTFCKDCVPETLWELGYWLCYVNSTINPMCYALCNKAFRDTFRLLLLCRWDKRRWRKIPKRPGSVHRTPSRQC
Method: (§1) In order to confirm whether the compounds prepared in the above Examples act as an agonist or antagonist against GPCR Target, Calcium Flux assay was performed in an assay plate in which the compounds prepared in the Examples, vehicle controls, and reference compounds were added, using a Fluorometric imaging plate reader (FLIPR tetra) equipment.
(§2) Calcium Flux assay was evaluated by entrusting the GPCR profiler assay in Safety panel assays with Eurofins. By using the Fluo-8AM calcium dye, excitation was measured at a wavelength in the range of 470 to 495 nm and Emission was measured at a wavelength in the range of 515-575 nm. GPCR Assay Buffer for Calcium Flux assay was prepared by adding 20 mM of HEPES and 2.5 mM of Probenecid to Hanks Balanced Salt Solution (HBSS) to have pH 7.4. The Compounds of Examples for evaluation of the GPCR were diluted with DMSO at a concentration of 10 mM to make a stock and then prepared by diluting in the GPCR Assay Buffer at the concentration equivalent to three times the final concentration. First, for the evaluation of GPCRs, the inhibitory activity of the compounds of the Examples was evaluated at a single concentration of 10 uM, and then the respective selected targets were four fold-diluted from 10 uM to the low side to calculate 50% inhibitory concentration (IC50), prepared at the total 8 concentrations of 10, 2.5, 0.62, 0.15, 0.04, 0.01, 0.0024, 0.0006 uM, and Calcium Flux assay for GPCR was conducted. In order to evaluate the agonist and antagonist, % inhibition rate against GPCR activity before and after treatment of the compounds and the inhibitory activity of the compounds of the Examples were determined.
(§3) As a result, when the efficacy of […] and acetylcholine of the compounds prepared in the Examples was 100%, the inhibition rate (%) at a single concentration of 10 uM was evaluated and shown in Table 8.

[2] = target: 5-HT2A (Homo sapiens, UniProt P28223); test: GPCR Calcium Flux assay (FLIPR tetra, Eurofins), 5-HT2A; conditions: for IC50: 8 concentrations 10 to 0.0006 uM, read-out: 50% inhibitory concentration (IC50) 5-HT2A; for inhibition at 10 µM: read-out: inhibition rate (%) 5-HT2A
5-HT2A, sequence (P28223 whole entry): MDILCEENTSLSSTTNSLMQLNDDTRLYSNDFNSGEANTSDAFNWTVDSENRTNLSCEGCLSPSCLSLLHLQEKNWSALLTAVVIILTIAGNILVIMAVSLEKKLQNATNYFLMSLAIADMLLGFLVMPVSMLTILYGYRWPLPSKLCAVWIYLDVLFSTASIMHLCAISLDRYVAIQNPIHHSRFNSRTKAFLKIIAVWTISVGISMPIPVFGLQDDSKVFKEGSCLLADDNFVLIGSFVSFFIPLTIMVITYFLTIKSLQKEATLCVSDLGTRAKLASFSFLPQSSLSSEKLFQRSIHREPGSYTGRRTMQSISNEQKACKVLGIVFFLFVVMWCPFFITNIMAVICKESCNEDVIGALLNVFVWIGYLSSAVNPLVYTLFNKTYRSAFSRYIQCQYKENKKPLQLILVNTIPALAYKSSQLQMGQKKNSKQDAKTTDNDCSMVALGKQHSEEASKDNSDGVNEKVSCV
Method: as §1, §2, §3

[3] = target: T2, M2 (Homo sapiens, UniProt P08172); test: GPCR Calcium Flux assay (FLIPR tetra, Eurofins), M2; conditions: for inhibition at 10 µM: read-out: inhibition rate (%) M2; for IC50: 8 concentrations 10 to 0.0006 uM, read-out: 50% inhibitory concentration (IC50) M2
T2 sequence (P08172 1-466): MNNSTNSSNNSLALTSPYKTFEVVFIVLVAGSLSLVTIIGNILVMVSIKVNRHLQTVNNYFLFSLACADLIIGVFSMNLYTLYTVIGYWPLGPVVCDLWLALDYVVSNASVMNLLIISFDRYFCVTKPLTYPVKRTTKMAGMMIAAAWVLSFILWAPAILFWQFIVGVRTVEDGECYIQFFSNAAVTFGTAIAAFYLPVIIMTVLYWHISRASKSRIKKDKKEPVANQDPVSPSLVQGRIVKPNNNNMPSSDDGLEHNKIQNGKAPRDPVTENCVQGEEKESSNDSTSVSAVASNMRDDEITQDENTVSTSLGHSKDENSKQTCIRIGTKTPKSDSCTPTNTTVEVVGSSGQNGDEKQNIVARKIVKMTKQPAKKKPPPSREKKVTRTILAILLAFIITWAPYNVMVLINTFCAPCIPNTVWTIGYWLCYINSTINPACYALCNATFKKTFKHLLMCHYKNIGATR
Method: as §1, §2, §3

SMILES	IC50 [1] [nM]	inhibition at 10 µM ([1]; single concentration of 10 uM) [%]	IC50 [2] [nM]	inhibition at 10 µM ([2]; single concentration of 10 uM) [%]	inhibition at 10 µM ([3]; single concentration of 10 uM) [%]	IC50 [3] [nM]	inhibition at 10 µM [1] [%]	inhibition at 10 µM [2] [%]	inhibition at 10 µM [3] [%]
CNCc1cn(S(=O)(=O)c2cccc(Cl)c2)c(-c2ccccc2F)c1OC [Example 1, 1-(5-(2-fluorophenyl)-4-methoxy-1-((3-chlorophenyl)sulfonyl)-1H-pyrrol-3-yl)-N-methylmethanamine hydrochloride]	1700	99.6	250	96.4	66.5				
CNCc1cn(S(=O)(=O)c2cccc(OC)c2)c(-c2ccccc2F)c1OC [Example 3, 1-(5-(2-fluorophenyl)-4-methoxy-1-((3-methoxyphenyl)sulfonyl)-1H-pyrrol-3-yl)-N-methylmethanamine hydrochloride]		87	180	94	76.9				
CNCc1cn(S(=O)(=O)c2cccc(OC(F)F)c2)c(-c2ccccc2F)c1OC [Example 4, 1-(5-(2-fluorophenyl)-4-methoxy-1-((3-difluoromethoxyphenyl)sulfonyl)-1H-pyrrol-3-yl)-N-methylmethanamine hydrochloride]		55.8	850	96	22				
CNCc1cn(S(=O)(=O)c2cccc(OC)c2)c(-c2ccccc2Cl)c1OC [Example 5, 1-(5-(2-chlorophenyl)-4-methoxy-1-((3-methoxyphenyl)sulfonyl)-1H-pyrrol-3-yl)-N-methylmethanamine hydrochloride]		93.7		69.1	75.1				
CNCc1cn(S(=O)(=O)c2cccc(Cl)c2)c(-c2ccc(Cl)cc2F)c1OC [Example 6, 1-(5-(2-fluoro-4-chlorophenyl)-4-methoxy-1-((3-chlorophenyl)sulfonyl)-1H-pyrrol-3-yl)-N-methylmethanamine hydrochloride]	~3000	93.1	160	102	15.1				
CNCc1cn(S(=O)(=O)c2cccc(C(F)(F)F)c2)c(-c2ccc(Cl)cc2F)c1OC [Example 7, 1-(5-(2-fluoro-4-chlorophenyl)-4-methoxy-1-((3-(trifluoromethyl)phenyl)sulfonyl)-1H-pyrrol-3-yl)-N-methylmethanamine hydrochloride]		65.6		42.3	0.8				
CNCc1cn(S(=O)(=O)c2cccc(C(F)(F)F)c2)c(-c2ccc(F)cc2F)c1OC [Example 9, 1-(5-(2,4-difluorophenyl)-1-((3-(trifluoromethyl)phenyl)sulfonyl)-4-methoxy-1H-pyrrol-3-yl)-N-methylmethanamine hydrochloride]		74.7		61.1	18.3				
CNCc1cn(S(=O)(=O)c2cccc(C)c2)c(-c2ccc(F)cc2F)c1OC [Example 10, 1-(5-(2,4-difluorophenyl)-1-((3-methylphenyl)sulfonyl)-4-methoxy-1H-pyrrol-3-yl)-N-methylmethanamine hydrochloride]	1300	96.2	360	101	77.6				
CNCc1cn(S(=O)(=O)c2cccc(OC)c2)c(-c2ccc(F)cc2F)c1OC [Example 11, 1-(5-(2,4-difluorophenyl)-1-((3-methoxyphenyl)sulfonyl)-4-methoxy-1H-pyrrol-3-yl)-N-methylmethanamine hydrochloride]	1800	97.2	200	102	79.4				
CNCc1cn(S(=O)(=O)c2cccc(OC(F)F)c2)c(-c2ccc(F)cc2F)c1OC [Example 12, 1-(5-(2,4-difluorophenyl)-1-((3-difluoromethoxyphenyl)sulfonyl)-4-methoxy-1H-pyrrol-3-yl)-N-methylmethanamine hydrochloride]		93.1		101	28.7				
CNCc1cn(S(=O)(=O)c2cccc(F)c2)c(-c2c(F)cccc2F)c1OC [Example 13, 1-(5-(2,6-difluorophenyl)-1-((3-fluorophenyl)sulfonyl)-4-methoxy-1H-pyrrol-3-yl)-N-methylmethanamine hydrochloride]	110	100	76	102	99.4	510			
CNCc1cn(S(=O)(=O)c2cccc(Cl)c2)c(-c2c(F)cccc2F)c1OC [Example 14, 1-(5-(2,6-difluorophenyl)-1-((3-chlorophenyl)sulfonyl)-4-methoxy-1H-pyrrol-3-yl)-N-methylmethanamine hydrochloride]		94.9	210	99.9	48.1				
CNCc1cn(S(=O)(=O)c2cccc(C(F)(F)F)c2)c(-c2c(F)cccc2F)c1OC [Example 15, 1-(5-(2,6-difluorophenyl)-1-((3-(trifluoromethyl)phenyl)sulfonyl)-4-methoxy-1H-pyrrol-3-yl)-N-methylmethanamine hydrochloride]		87.1		30.1	62.1				
CNCc1cn(S(=O)(=O)c2cccc(C)c2)c(-c2c(F)cccc2F)c1OC [Example 16, 1-(5-(2,6-difluorophenyl)-1-((3-methylphenyl)sulfonyl)-4-methoxy-1H-pyrrol-3-yl)-N-methylmethanamine fumarate]	1900		58				95.4	102	69.7
CNCc1cn(S(=O)(=O)c2cccc(OC)c2)c(-c2c(F)cccc2F)c1OC [Example 17, 1-(5-(2,6-difluorophenyl)-1-((3-methoxyphenyl)sulfonyl)-4-methoxy-1H-pyrrol-3-yl)-N-methylmethanamine hydrochloride]		85.2	2200	102	60.1				
CNCc1cn(S(=O)(=O)c2ccc(F)c(Cl)c2)c(-c2c(F)cccc2F)c1OC [Example 18, 1-(5-(2,6-difluorophenyl)-1-((3-chloro-4-fluorophenyl)sulfonyl)-4-methoxy-1H-pyrrol-3-yl)-N-methylmethanamine hydrochloride]	~2100	91.2	210	98.1	42.1				
CNCc1cn(S(=O)(=O)c2ccc(F)c(F)c2)c(-c2c(F)cccc2F)c1OC [Example 19, 1-(5-(2,6-difluorophenyl)-1-((3,4-difluorophenyl)sulfonyl)-4-methoxy-1H-pyrrol-3-yl)-N-methylmethanamine hydrochloride]	430	101	120	102	102	820			
